# Measured values reported in patent US20240091358A1, “[…] REGULATION” (Senti Biosciences, Inc., priority 2021, published 2024).
# What was measured:
# Format in all cases: cell-based
# [1] = test system: Hep3B cells; assay: Nanoluciferase activity (Promega Nanoglo) in Hep3B cells transduced with AAV2/AAV8 nanoluciferase-degron constructs, with or without IMiD (Example 5); details: for luciferase activity relative to cells not treated / minimal effective dose in vitro: Hep3B cells transduced with AAV2 construct; for luciferase activity relative to cells not treated: 1-0.01 μM drug, all concentrations tested; for minimal effective dose in vitro: concentration that may be approaching the minimal effective dose; for Fold change relative to no drug: decrease in nanoluciferase activity, Hep3B cells transduced with AAV2 nanoluciferase/degron construct
# Experimental: AAV2 and AAV8 viral vector constructs were generated that expressed nanoluciferase as a chimeric protein fused to a C-terminal degron using an A(EAAK)3A linker (SEQ ID NO: 193). Constructs were generated using packaging vectors with either AAV2 or AAV8 capsid protein.
# Luciferase activity was assessed following the general protocol below: • Day 0: Hep3b cells were plated at 50,000 cells per well in a 96 well plate • Day 1: 1e6 vg/cell AAV2 or 3e6 vg/cell AAV8 was added to cells in presence or absence of 1 μM Lenalidomide (or 1 μM-0.01 μM Lenalidomide or Pomalidomide) • Day 3: Cells were lysed and luciferase activity was measured with Promega Nanoglo kit
# [2] = test system: HEK293Ft cells; assay: SEAP QuantiBlue assay of SEAP/degron constructs in HEK293Ft cells (Example 1); details: 1 μM lenalidomide vs no drug
# [3] = test system: donor-derived T cells; assay: SEAP QuantiBlue assay of SEAP/degron constructs in donor-derived T cells (Example 1); details: 1 μM lenalidomide vs no drug
# Experimental: A series of pL17d-based viral vector constructs were generated using Secreted Alkaline Phosphatase (SEAP) fused to a degron (d913 super degron) using various linkers, as described in Table 6A with sequences listed in Table 6B. The d913 super degron is described in more detail in International Application Pub. No. WO2019/089592A1, herein incorporated by reference for all purposes.
# (§1) SEAP assays were performed using the QuantiBlue kit (Invivogen; rep-qb1). […] The CliniMACS Prodigy utilizes a closed-system, single-use disposable kits for many different cell types. The automated program performs platelet washes, CD4+& CD8+ bead labeling, and positive selection over a magnet resulting in cell suspensions with high purity. Positively selected T cells were then sampled, analyzed for cell surface phenotype via flow cytometry and cryopreserved via a controlled rate freezer. • Cells were then thawed and activated on Day 0 (1e6 cells/mL in a 24 well plate were activated 3:1 with CD3/CD28 Dynabeads) • On Day 1, 100K GS units of virus were added to cells • On Day 2, fresh media was added to T cells • On Day 4, each well was split into 2 wells of 6 well plate with +/−1 μM lenalidomide • On Day 7, cells were pelleted and 20 uL supernatant from each well was harvested and incubated with 180 uL QuantiBlue (Invivogen) for 1 h at 37 deg, SEAP activity was read out on a plate reader at 655 nm
# [4] = test system: HEK293Ft cells; assay: SEAP QuantiBlue assay of Membrane-Cleavable Degron constructs in HEK293Ft cells (Example 2); details: 1 μM lenalidomide vs no drug
# [5] = test system: donor-derived T cells; assay: SEAP QuantiBlue assay of Membrane-Cleavable Degron constructs in donor-derived T cells (Example 2); details: supernatant, 1 μM lenalidomide vs no drug
# Experimental: A series of pL17d-based viral vector constructs were generated using Secreted Alkaline Phosphatase (SEAP) fused to a degron (d913 super degron) using various linkers, including transmembrane domain containing linkers, as described in Table 8A with sequences listed in Table 8B.
# as §1, with “into 6” for “into 2”, “of 48” for “of 6”, “lenalidomide (3 wells with drug, 3 wells without)” for “lenalidomide”
# [6] = test system: Jurkat T cells; assay: SEAP QuantiBlue assay in Jurkat T cells (Example 3); details: supernatant, 1 μM lenalidomide vs no drug
# Experimental: The viral vector constructs were generated, as described above, using Secreted Alkaline Phosphatase (SEAP) fused to a degron (d913 super degron) with various linkers, including transmembrane domain containing linkers. The constructs examined are described in Table 10.
# SEAP assays were performed using the QuantiBlue kit (Invivogen; rep-qb1). For experiments performed in Jurkat cells, the following protocol was followed: • On Day 1, cells were plated at 1e6 cells in 1 mL in a 24 well plate and 300 k GS units of virus was added • On Day 3, cells were split into 6 wells of a 48 well plate (1e5 cells in 0.5 mL) and drug was added to 3 of these wells (1 μM lenalidomide) • On Day 6, cells were pelleted and 20 uL supernatant from each well was harvested and incubated with 180 uL QuantiBlue (Invivogen) for 1 h at 37 deg, SEAP activity was read out on a plate reader at 655 nm
# [7] = test system: donor-derived T cells; assay: hIL-10 secretion from donor T cells by Luminex assay, normalized to hIL-12 (Example 4); details: for % 1 uM Len of no drug (IL10/IL12 ratio) / Mean IL10/IL12 ratio (1 uM Len) / Mean IL10/IL12 ratio (no drug): donor T cell supernatant; for % 1 uM Len of no drug (IL10/IL12 ratio): 1 uM lenalidomide relative to no drug; for Mean IL10/IL12 ratio (1 uM Len): 1 uM lenalidomide; for Mean IL10/IL12 ratio (1 uM Len) / Mean IL10/IL12 ratio (no drug): hIL-10 normalized to hIL-12
# Experimental: The viral vectors also expressed human IL-12 (hIL-12) from a separate promoter as a normalization control for cell number, viability, and transduction efficiency.
# Cytokine secretion was assessed following the general protocol below: • Day 0: Donor T cells (enriched as previously described above) were thawed and activated with CD3/CD28 Dynabeads • Day 1: T cells were transduced with viral constructs (100 k GoStix values per 1e6 cells) • Day 2: Media was changed • Day 4: Cells were passaged • Day 7: Cells were spun down, washed 3× with media, then resuspended in media+/−1 μM Lenalidomide • Day 9: Supernatants were harvested and were evaluated for hIL10 and hIL12 concentration by Luminex assay
# [8] = SEAP absorbance divided by cell count per well
Molecule,luciferase activity relative to cells not treated [1],minimal effective dose in vitro [1] [µM],Fold change relative to no drug ([1]; drug dose 0.01 uM) [fold],Fold change relative to no drug ([1]; drug dose 0.05 uM) [fold],Fold change relative to no drug ([1]; drug dose 0.1 uM) [fold],Fold change relative to no drug ([1]; drug dose 0.5 uM) [fold],Fold change relative to no drug ([1]; drug dose 1 uM) [fold],% 1 uM Len of no drug (IL10/IL12 ratio) [7] [%],Mean IL10/IL12 ratio (1 uM Len) [7],Mean IL10/IL12 ratio (no drug) [7],also measured
Nc1cccc2c1CN(C1CCC(=O)NC1=O)C2=O (centres unmarked) [lenalidomide],significant decreases in luciferase activity,~0.01,6,18,25,35,60,–,–,–,–
Construct 419: pL17d viral vector construct expressing SEAP without a degron; SEQ ID NO: 179 [reference compound],–,–,–,–,–,–,–,–,–,–,"% SEAP OFF vs. ON (Len treated/untreated *100) Normalized to cell count [2, 8]: 133%; % SEAP OFF vs. ON (Len treated/untreated *100) ([2]; supernatant): 103%; % SEAP OFF vs. ON (Len treated/untreated *100) Normalized to cell count [3, 8]: 169%; % SEAP OFF vs. ON (Len treated/untreated *100) ([3]; supernatant): 127%; % SEAP OFF vs. ON (Len treated/untreated *100) Normalized to cell count [4, 8]: 104.3%; % SEAP OFF vs. ON (Len treated/untreated *100) ([4]; supernatant): 70%; % SEAP OFF vs. ON (Len treated/untreated *100) [5]: 129%; OFF % of ON (SEAP enzymatic activity) [6]: 105.3 (ns) %"
Nc1cccc2c1C(=O)N(C1CCC(=O)NC1=O)C2=O (centres unmarked) [pomalidomide],significant decreases in luciferase activity,~0.01,4,12,19,18,19,–,–,–,–
"Construct 1585: SFFV promoter-hIL-10-ADAM10/17 cleavage site-PDGFRb TM-A(EAAAK)3A-d913 degron; minTK-hIL-12 (opposite direction); SEQ ID NO: 187 (nucleic acid, misc_feature 1..1034 Description of Artificial Sequence: Synthetic polynucleotide) DNA: CCGATAAAATAAAAGATTTTATTTAGTCTCCAGAAAAAGGGGGGAATGAAAGACCCCACCTGTAGGTTTGGCAAGCTAGCTGCAGTAACGCCATTTTGCAAGGCATGGAAAAATACCAAACCAAGAATAGAGAAGTTCAGATCAAGGGCGGGTACATGAAAATAGCTAACGTTGGGCCAAACAGGATATCTGCGGTGAGCAGTTTCGGCCCCGGCCCGGGGCCAAGAACAGATGGTCACCGCAGTTTCGGCCCCGGCCCGAGGCCAAGAACAGATGGTCCCCAGATATGGCCCAACCCTCAGCAGTTTCTTAAGACCCATCAGATGTTTCCAGGCTCCCCCAAGGACCTGAAATGACCCTGCGCCTTATTTGAATTAACCAATCAGCCTGCTTCTCGCTTCTGTTCGCGCGCTTCTGCTTCCCGAGCTCTATAAAAGAGCTCACAACCCCTCACTCGGCGCGCCAGTCCTCCGACAGACTGAGTCGCCCGGGGGGGATCTGGAGCTCTCGAGAATTCATGCACTCATCTGCTCTCCTTTGCTGTCTCGTGCTCCTGACTGGAGTACGCGCGTCACCCGGTCAAGGGACACAAAGCGAAAACTCCTGTACGCATTTTCCGGGCAACCTCCCTAATATGCTTCGCGACTTGCGAGATGCATTTTCCAGGGTGAAGACCTTCTTCCAGATGAAGGACCAGTTGGATAATCTTCTCCTCAAGGAGTCTCTTTTGGAGGACTTCAAGGGCTACCTGGGATGTCAAGCCCTTAGCGAAATGATTCAGTTTTATCTTGAAGAGGTCATGCCGCAAGCTGAGAACCAGGACCCCGACATAAAAGCCCATGTGAACTCCCTCGGCGAGAATTTGAAGACGCTGAGACTTAGATTGAGAAGATGTCATAGATTTCTCCCATGTGAGAATAAGTCCAAGGCTGTCGAGCAGGTTAAGAATGCTTTCAATAAGTTGCAGGAAAAAGGAATCTATAAGGCAATGAGCGAGTTTGACATCTTTATTAACTACATTGAGGCTTATATGA",–,–,–,–,–,–,–,56,1.65,2.97,–
"Construct 1584: SFFV promoter-hIL-10; minTK-hIL-12 (opposite direction); native hIL-10 without a degron; SEQ ID NO: 186 (nucleic acid, misc_feature 1..1054 Description of Artificial Sequence: Synthetic polynucleotide) DNA: CCGATAAAATAAAAGATTTTATTTAGTCTCCAGAAAAAGGGGGGAATGAAAGACCCCACCTGTAGGTTTGGCAAGCTAGCTGCAGTAACGCCATTTTGCAAGGCATGGAAAAATACCAAACCAAGAATAGAGAAGTTCAGATCAAGGGCGGGTACATGAAAATAGCTAACGTTGGGCCAAACAGGATATCTGCGGTGAGCAGTTTCGGCCCCGGCCCGGGGCCAAGAACAGATGGTCACCGCAGTTTCGGCCCCGGCCCGAGGCCAAGAACAGATGGTCCCCAGATATGGCCCAACCCTCAGCAGTTTCTTAAGACCCATCAGATGTTTCCAGGCTCCCCCAAGGACCTGAAATGACCCTGCGCCTTATTTGAATTAACCAATCAGCCTGCTTCTCGCTTCTGTTCGCGCGCTTCTGCTTCCCGAGCTCTATAAAAGAGCTCACAACCCCTCACTCGGCGCGCCAGTCCTCCGACAGACTGAGTCGCCCGGGGGGGATCTGGAGCTCTCGAGAATTCATGCACTCATCTGCTCTCCTTTGCTGTCTCGTGCTCCTGACTGGAGTACGCGCGTCACCCGGTCAAGGGACACAAAGCGAAAACTCCTGTACGCATTTTCCGGGCAACCTCCCTAATATGCTTCGCGACTTGCGAGATGCATTTTCCAGGGTGAAGACCTTCTTCCAGATGAAGGACCAGTTGGATAATCTTCTCCTCAAGGAGTCTCTTTTGGAGGACTTCAAGGGCTACCTGGGATGTCAAGCCCTTAGCGAAATGATTCAGTTTTATCTTGAAGAGGTCATGCCGCAAGCTGAGAACCAGGACCCCGACATAAAAGCCCATGTGAACTCCCTCGGCGAGAATTTGAAGACGCTGAGACTTAGATTGAGAAGATGTCATAGATTTCTCCCATGTGAGAATAAGTCCAAGGCTGTCGAGCAGGTTAAGAATGCTTTCAATAAGTTGCAGGAAAAAGGAATCTATAAGGCAATGAGCGAGTTTGACATCTTTATTAACTACATTGAGGCTTATATGACTATGAAAATTAGAAACTAA",–,–,–,–,–,–,–,131,4.09,3.11,"hIL-10 secretion upon addition of lenalidomide ([7]; donor-derived T cells, 1 μM lenalidomide): did not result in reduced secretion"
